Like-named read-outs stand apart in the source and are kept apart here.
Target: T1, P2Y12 receptor (Homo sapiens, UniProt Q9H244)
T1 construct: expressed in transfected cells; host or cells: CHO cells (membranes)
Test: Functional inhibition of 2-Me-S-ADP induced P2Y12 signalling (35S-GTPγS binding, membranes from P2Y12 transfected CHO-cells)
Type: biochemical
Procedure: Functional inhibition of- the P2Y12 receptor can be measured by in vitro assays using cell membranes from P2Y12 transfected CHO-cells, the methodology is indicated below.
Functional inhibition of 2-Me-S-ADP induced P2Y12 signalling: 5 μg of membranes were diluted in 200 μl of 200 mM NaCl, 1 mM MgCl2, 50 mM HEPES (pH 7.4), 0.01% BSA, 30 μg/ml saponin and 10 μM GDP. To this was added an EC80 concentration of agonist (2-methyl-thio-adenosine diphosphate), the required concentration of test compound and 0.1 μCi ^35S-GTPγS. The reaction was allowed to proceed at 30° C. for 45 min. Samples were then transferred on to GF/B filters using a cell harvester and washed with wash buffer (50 mM Tris (pH 7.4), 5 mM MgCl2, 50 mM NaCl). Filters were then covered with scintilant and counted for the amount of ^35S-GTPγS retained by the filter. Maximum activity was that determined in the presence of the agonist and minimum activity in the absence of the agonist following subtraction of the value determined for non-specific activity. The effect of compounds at various concentrations was plotted according to the equation
y=A+((B−A)/(1+((C/x)̂D)))
and IC50 estimated where A is the bottom plateau of the curve i.e. the final minimum y value B is the top of the plateau of the curve i.e. the final maximum y value C is the x value at the middle of the curve. This represents the log EC50 value when A+B=100 D is the slope factor. x is the original known x values. Y is the original known y values.

[1] = 35S-GTPγS, EC80 of 2-methyl-thio-adenosine diphosphate, P2Y12 CHO membranes, value given in each example, read-out: GTPγS(IC50 μM)

T1 sequence (Q9H244 whole entry): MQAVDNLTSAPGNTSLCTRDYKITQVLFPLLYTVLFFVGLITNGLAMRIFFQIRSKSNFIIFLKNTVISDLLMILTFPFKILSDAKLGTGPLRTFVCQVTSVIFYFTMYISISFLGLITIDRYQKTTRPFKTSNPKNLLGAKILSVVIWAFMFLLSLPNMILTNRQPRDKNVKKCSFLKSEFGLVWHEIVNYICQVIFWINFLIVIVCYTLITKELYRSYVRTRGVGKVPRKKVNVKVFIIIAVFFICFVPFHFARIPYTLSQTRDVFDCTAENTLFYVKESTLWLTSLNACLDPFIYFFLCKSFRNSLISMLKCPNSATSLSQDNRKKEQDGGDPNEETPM

Row | SMILES | IC50 [1] [µM] | IC50 (functional inhibition of 2-Me-S-ADP induced P2Y12 signalling assay, EC80 of agonist, summary table in Pharmacological Data, read-out: IC50) [µM]
1 | CCCCC(=O)c1cc(C#N)c(N2CCC(C(=O)NS(=O)(=O)N(C)c3ccccc3)CC2)nc1CN1CCCC1=O [Example 22, 1-{3-Cyano-6-[(2-oxopyrrolidin-1-yl)methyl]-5-pentanoylpyridin-2-yl}-N-{[methyl(phenyl)amino]sulfonyl}piperidine-4-carboxamide] | 0.017 | 
2 | CCCC(=O)c1cc(C#N)c(N2CCC(C(=O)N(C)S(=O)(=O)CC3CCCC3)CC2)nc1CN1CCCC1=O [Example 70, 1-{5-Butyryl-3-cyano-6-[(2-oxopyrrolidin-1-yl)methyl]pyridin-2-yl}-N-[(cyclopentylmethyl)sulfonyl]-N-methylpiperidine-4-carboxamide] | 0.903 | 
3 | CC(=O)c1cc(C#N)c(N2CCC(C(=O)NS(=O)(=O)Cc3ccccc3)CC2)nc1CN1CCCC1=O [Example 1, 1-{5-Acetyl-3-cyano-6-[(2-oxopyrrolidin-1-yl)methyl]pyridin-2-yl}-N-(benzylsulfonyl)piperidine-4-carboxamide] | 0.283 | 
4 | CCCC(=O)c1cc(C#N)c(N2CCC(C(=O)NS(=O)(=O)Nc3ccccc3)CC2)nc1CN1CCCC1=O [Example 38, N-(Anilinosulfonyl)-1-{5-butyryl-3-cyano-6-[(2-oxopyrrolidin-1-yl)methyl]pyridin-2-yl}piperidine-4-carboxamide] | 0.033 | 
5 | CCCC(=O)c1cc(C#N)c(N2CCC(C(=O)NS(=O)(=O)Cc3ccc(C)cc3)CC2)nc1CN1CCCCC1=O [Example 4, 1-{5-Butyryl-3-cyano-6-[(2-oxopiperidin-1-yl)methyl]pyridin-2-yl}-N-[(4-methylbenzyl)sulfonyl]piperidine-4-carboxamide] | 0.021 | 0.28
6 | CC(=O)c1cc(C#N)c(N2CCC(C(=O)NS(=O)(=O)Cc3ccccc3)CC2)nc1CN1CCCCC1=O [Example 3, 1-{5-Acetyl-3-cyano-6-[(2-oxopiperidin-1-yl)methyl]pyridin-2-yl}-N-(benzylsulfonyl)piperidine-4-carboxamide] | 1.65 | 
7 | C=CCCC(=O)c1cc(C#N)c(N2CCC(C(=O)NS(=O)(=O)Cc3ccc(C)cc3)CC2)nc1CN1CCCC1=O [Example 40, 1-{3-cyano-6-[(2-oxopyrrolidin-1-yl)methyl]-5-pent-4-enoylpyridin-2-yl}-N-[(4-methylbenzyl)sulfonyl]piperidine-4-carboxamide] | 0.0081 | 
8 | C=CCCC(=O)c1cc(Cl)c(N2CCC(C(=O)NS(=O)(=O)Cc3ccccc3)CC2)nc1CN1CCCC1=O [Example 51, N-(benzylsulfonyl)-1-{3-chloro-6-[(2-oxopyrrolidin-1-yl)methyl]-5-pent-4-enoylpyridin-2-yl}piperidine-4-carboxamide] | 0.069 | 
9 | N#Cc1cc(C(=O)CCC(F)(F)F)c(CN2CCCC2=O)nc1N1CCC(C(=O)NS(=O)(=O)CC2CCCC2)CC1 [Example 44, 1-{3-cyano-6-[(2-oxopyrrolidin-1-yl)methyl]-5-(4,4,4-trifluorobutanoyl)pyridin-2-yl}-N-[(cyclopentylmethyl)sulfonyl]piperidine-4-carboxamide] | 0.146 | 
10 | CCCC(=O)c1cc(C#N)c(N2CCC(C(=O)NS(=O)(=O)Cc3ccc(OC)cc3)CC2)nc1CN1CCCC1=O [Example 35, 1-{5-Butyryl-3-cyano-6-[(2-oxopyrrolidin-1-yl)methyl]pyridin-2-yl}-N-[(4-methoxybenzyl)sulfonyl]piperidine-4-carboxamide] | 0.0097 | 
11 | CCCC(=O)c1cc(Cl)c(N2CCC(C(=O)NS(=O)(=O)Cc3ccccc3)CC2)nc1CN1CCCC1=O [Example 30, N-(Benzylsulfonyl)-1-{5-butyryl-3-chloro-6-[(2-oxopyrrolidin-1-yl)methyl]pyridin-2-yl}piperidine-4-carboxamide] | 0.062 | 
12 | CCc1cnc(-c2cc(Cl)c(N3CCC(C(=O)NS(=O)(=O)N(C)c4ccc(F)cc4)CC3)nc2CN2CCCC2=O)o1 [Example 64, 1-{3-chloro-5-(5-ethyl-1,3-oxazol-2-yl)-6-[(2-oxopyrrolidin-1-yl)methyl]pyridin-2-yl}-N-{[(4-fluorophenyl)(methyl)amino]sulfonyl}piperidine-4-carboxamide] | 0.45 | 
13 | CCCCC(=O)c1cc(C#N)c(N2CCC(C(=O)NS(=O)(=O)Cc3ccc(C#N)cc3)CC2)nc1CN1CCCC1=O [Example 47, N-[(4-cyanobenzyl)sulfonyl]-1-{3-cyano-6-[(2-oxopyrrolidin-1-yl)methyl]-5-pentanoylpyridin-2-yl}piperidine-4-carboxamide] | 0.043 | 
14 | CCCCC(=O)c1cc(C#N)c(N2CCC(C(=O)NS(=O)(=O)Cc3ccc(F)cc3F)CC2)nc1CN1CCCC1=O [Example 20, 1-{3-Cyano-6-[(2-oxopyrrolidin-1-yl)methyl]-5-pentanoylpyridin-2-yl}-N-[(2,4-difluorobenzyl)sulfonyl]piperidine-4-carboxamide] | 0.013 | 
15 | N#Cc1cc(C(=O)C2CC2)c(CN2CCCCC2=O)nc1N1CCC(C(=O)NS(=O)(=O)CC2CCCC2)CC1 [Example 14, 1-{3-Cyano-5-(cyclopropylcarbonyl)-6-[(2-oxopiperidin-1-yl)methyl]pyridin-2-yl}-N-[(cyclopentylmethyl)sulfonyl]piperidine-4-carboxamide] | 0.461 | 
16 | CCCCC(=O)c1cc(Cl)c(N2CCC(C(=O)NS(=O)(=O)Cc3ccc(F)cc3F)CC2)nc1CN1CCCC1=O [Example 55, 1-{3-chloro-6-[(2-oxopyrrolidin-1-yl)methyl]-5-pentanoylpyridin-2-yl}-N-[(2,4-difluorobenzyl)sulfonyl]piperidine-4-carboxamide] | 0.226 | 
17 | CN(c1ccc(F)cc1)S(=O)(=O)NC(=O)C1CCN(c2nc(CN3CCCC3=O)c(C(=O)CCC(F)(F)F)cc2C#N)CC1 [Example 45, 1-{3-cyano-6-[(2-oxopyrrolidin-1-yl)methyl]-5-(4,4,4-trifluorobutanoyl)pyridin-2-yl}-N-{[(4-fluorophenyl)(methyl)amino]sulfonyl}piperidine-4-carboxamide] | 0.05 | 
18 | CCCCC(=O)c1cc(C#N)c(N2CCC(C(=O)NS(=O)(=O)CC3CCCC3)CC2)nc1CN1CCCC1=O [Example 17, 1-{3-Cyano-6-[(2-oxopyrrolidin-1-yl)methyl]-5-pentanoylpyridin-2-yl}-N-[(cyclopentylmethyl)sulfonyl]piperidine-4-carboxamide] | 0.029 | 
19 | CN(c1ccccc1)S(=O)(=O)NC(=O)C1CCN(c2nc(CN3CCCC3=O)c(C(=O)C3CC3)cc2C#N)CC1 [Example 23, 1-{3-Cyano-5-(cyclopropylcarbonyl)-6-[(2-oxopyrrolidin-1-yl)methyl]pyridin-2-yl}-N-{[methyl(phenyl)amino]sulfonyl}piperidine-4-carboxamide] | 0.042 | 
20 | CCCC(=O)c1cc(Cl)c(N2CCC(C(=O)N(C)S(=O)(=O)N(C)c3ccc(F)cc3)CC2)nc1CN1CCCC1=O [Example 69, 1-{5-Butyryl-3-chloro-6-[(2-oxopyrrolidin-1-yl)methyl]pyridin-2-yl}-N-{[(4-fluorophenyl)(methyl)amino]sulfonyl}-N-methylpiperidine-4-carboxamide] | 3.67 | 
21 | C=CCCC(=O)c1cc(C#N)c(N2CCC(C(=O)NS(=O)(=O)Cc3ccccc3)CC2)nc1CN1CCCC1=O [Example 26, N-(benzylsulfonyl)-1-{3-cyano-6-[(2-oxopyrrolidin-1-yl)methyl]-5-pent-4-enoylpyridin-2-yl}piperidine-4-carboxamide] | 0.017 | 
22 | CCC(=O)c1cc(C#N)c(N2CCC(C(=O)NS(=O)(=O)Cc3ccccc3)CC2)nc1CN1CCCC1=O [Example 10, N-(benzylsulfonyl)-1-{3-cyano-6-[(2-oxopyrrolidin-1-yl)methyl]-5-propionylpyridin-2-yl}piperidine-4-carboxamide] | 0.098 | 
